Measured values: publication PMC7473772 (eLife, 2020)
“And” between values parts separate entries of the source, which are not always exact repeats. Equal values may be shown once. Read-outs that look alike come from different tables or passages of the source.

What was measured:
tbaqp2/tbaqp3 null cells = assay: microbe, parasite or virus in culture; type: cell-based, Trypanosoma brucei brucei
[1] = tested on: tbaqp2/tbaqp3 null cells expressing TbAQP2^S131P/S263A; type: cell-based, Trypanosoma brucei brucei
[2] = tested on: tbaqp2/tbaqp3 null cells expressing TbAQP2^L264R; type: cell-based, Trypanosoma brucei brucei
[3] = tested on: tbaqp2/tbaqp3 null cells expressing TbAQP2^L84W/L118W; assay: Drug sensitivity assay (resazurin); type: cell-based, Trypanosoma brucei brucei; settings: Fig. 4A, L84W/L118W in aqp2/aqp3 null, read-out: Alamar blue EC50, single repeats
[4] = tested on: tbaqp2/tbaqp3 null cells expressing TbAQP2 L218M; assay: microbe, parasite or virus in culture; type: cell-based, Trypanosoma brucei brucei; settings: Trypanosoma brucei
[5] = tested on: tbaqp2/tbaqp3 null cells expressing TbAQP3; type: cell-based, Trypanosoma brucei brucei
[6] = tested on: tbaqp2/tbaqp3 null cells expressing TbAQP3^W102I/R256L/Y250L; type: cell-based, Trypanosoma brucei brucei
[7] = tested on: tbaqp1-2-3 null cells expressing TbAQP2 position 84, 118 and 218 Trp and Met mutants; assay: Drug sensitivity assay (resazurin), pentamidine and SHAM; type: cell-based, Trypanosoma brucei brucei
T. b. brucei 2T1 = type: cell-based, Trypanosoma brucei brucei
TbAQP2^L258Y = TbAQP2^L258Y (Trypanosoma brucei brucei, UniProt Q6ZXT3, L258Y); assay: [3H]-pentamidine transport; type: cell-based; settings: 30 nM [3H]-pentamidine
TbAQP2^L258Y, sequence (Q6ZXT3 whole entry L258Y): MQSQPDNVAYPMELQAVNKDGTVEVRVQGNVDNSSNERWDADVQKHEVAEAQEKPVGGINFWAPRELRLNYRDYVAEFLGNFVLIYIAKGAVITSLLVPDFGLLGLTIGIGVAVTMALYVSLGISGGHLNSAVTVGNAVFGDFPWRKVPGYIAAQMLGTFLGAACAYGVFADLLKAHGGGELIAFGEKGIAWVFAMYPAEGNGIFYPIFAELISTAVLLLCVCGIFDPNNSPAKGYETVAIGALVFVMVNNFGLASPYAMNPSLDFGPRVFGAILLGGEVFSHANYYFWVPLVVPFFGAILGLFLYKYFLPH

TbAQP2^I110W = TbAQP2^I110W (Trypanosoma brucei brucei, UniProt Q6ZXT3, I110W); assay: [3H]-pentamidine transport; type: cell-based; settings: 30 nM [3H]-pentamidine
TbAQP2^I110W, sequence (Q6ZXT3 whole entry I110W): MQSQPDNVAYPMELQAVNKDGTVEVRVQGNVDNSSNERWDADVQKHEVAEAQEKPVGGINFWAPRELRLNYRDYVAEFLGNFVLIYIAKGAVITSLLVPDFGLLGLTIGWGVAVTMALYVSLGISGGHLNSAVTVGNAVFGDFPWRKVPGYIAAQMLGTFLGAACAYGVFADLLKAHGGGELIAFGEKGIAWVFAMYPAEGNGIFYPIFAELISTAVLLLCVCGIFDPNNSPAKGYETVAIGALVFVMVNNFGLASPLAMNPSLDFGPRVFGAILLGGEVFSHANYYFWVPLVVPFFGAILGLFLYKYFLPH

TbAQP2^L84W/L118W = TbAQP2^L84W/L118W (Trypanosoma brucei brucei, UniProt Q6ZXT3, L118W/L84W); assay: [3H]-pentamidine transport; type: cell-based; settings: AQP2 mutant L84W/118W; n=3
TbAQP2^L84W/L118W, sequence (Q6ZXT3 whole entry L84W/L118W): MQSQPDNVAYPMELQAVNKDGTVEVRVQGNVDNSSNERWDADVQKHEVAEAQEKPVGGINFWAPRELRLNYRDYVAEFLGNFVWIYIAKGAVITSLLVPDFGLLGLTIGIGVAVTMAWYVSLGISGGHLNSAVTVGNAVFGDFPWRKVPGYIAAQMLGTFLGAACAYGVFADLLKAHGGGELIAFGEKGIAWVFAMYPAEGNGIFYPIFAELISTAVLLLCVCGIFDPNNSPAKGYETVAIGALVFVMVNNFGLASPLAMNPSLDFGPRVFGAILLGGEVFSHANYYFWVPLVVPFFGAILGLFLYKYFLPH

[8] = molecular target: T1, aqp1/aqp2/aqp3 null cells expressing TbAQP2-WT (Trypanosoma brucei brucei, UniProt Q6ZXT3); assay: Inhibition of [3H]-glycerol uptake; type: cell-based; settings: for glycerol uptake: zero inhibitor point 0.002246
T1 sequence (Q6ZXT3 1-312): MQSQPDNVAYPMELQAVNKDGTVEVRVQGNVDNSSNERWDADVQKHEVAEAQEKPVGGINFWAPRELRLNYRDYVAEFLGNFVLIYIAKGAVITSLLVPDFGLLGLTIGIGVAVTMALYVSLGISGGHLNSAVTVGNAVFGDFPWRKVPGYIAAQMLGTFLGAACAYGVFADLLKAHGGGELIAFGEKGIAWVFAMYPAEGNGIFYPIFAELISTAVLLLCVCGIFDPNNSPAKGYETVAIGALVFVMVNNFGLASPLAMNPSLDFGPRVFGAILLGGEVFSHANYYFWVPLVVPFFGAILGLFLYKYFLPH

[9] = read-out: Alamar blue EC50, MEAN

`N=C(N)c1ccc(OCCCCCOc2ccc(C(=N)N)cc2)cc1` [Pentamidine] was tested, and the “EC50, percent of AQP2/3 null EC50” value (tbaqp2/tbaqp3 null cells) was 100.00%, the “EC50 as percent of AQP2/3 null EC50, MEAN” value (“EC50 as percent … MEAN” below) (tbaqp2/tbaqp3 null cells) was 100.00% and the “EC50 as percent of AQP2/3 null EC50, single repeats” value (tbaqp2/tbaqp3 null cells) was 100%. The EC50 (tbaqp2/tbaqp3 null cells; Trypanosoma brucei, read-out: Alamar blue EC50, MEAN) was 66.3 nM, the EC50 (tbaqp2/tbaqp3 null cells; Trypanosoma brucei, read-out: Alamar blue EC50, single repeats) was 69.3 nM and the EC50 (tbaqp2/tbaqp3 null cells; [9]) was 72.3 nM. For the same compound, the EC50 (tbaqp2/tbaqp3 null cells; read-out: Alamar blue EC50, single repeats) was 52.1 nM and 77.6 nM and 77.5 nM and 68.9 nM and 70.5 nM, the “EC50, percent of AQP2/3 null EC50” value [1] was 1.92% and the “EC50, percent of AQP2/3 null EC50” value [2] was 126.58%. For the same compound, the EC50 [3] was 65.7 nM, the EC50 ([3]; Trypanosoma brucei) was 53.4 nM and the EC50 [4, 9] was 0.63 nM. The EC50 ([4]; read-out: EC50 AVG) was 0.63 nM, the “EC50 as percent … MEAN” value [5] was 105.70% and the “EC50 as percent … MEAN” value [6] was 31.94%. The EC50 ([7]; +L84M in aqp1-3 triple KO, read-out: Alamar blue EC50, single repeats) was 0.8 nM and 0.9 nM, the EC50 ([7]; +L84W in aqp1-3 triple KO, read-out: Alamar blue EC50, single repeats) was 18.7 nM and 15.3 nM and the EC50 ([7]; +L84W/L118W in aqp1-3 triple KO, read-out: Alamar blue EC50, single repeats) was 65.7 nM. The EC50 ([7]; +L118M in aqp1-3 triple KO, read-out: Alamar blue EC50, single repeats) was 27.8 nM and 29.4 nM, the EC50 ([7]; +L118W in aqp1-3 triple KO, read-out: Alamar blue EC50, single repeats) was 27.1 nM and 25.8 nM and the EC50 ([7]; +L218W in aqp1-3 triple KO, read-out: Alamar blue EC50, single repeats) was 3.9 nM and 5.3 nM. It also gave an EC50 ([7]; Trypanosoma brucei, +L84M in aqp1-3 triple KO, 3 repeats, read-out: Alamar blue EC50, MEAN) of 0.77 nM, an EC50 ([7]; Trypanosoma brucei, +L84M in aqp1-3 triple KO, read-out: Alamar blue EC50, single repeats) of 0.65 nM and an EC50 ([7]; Trypanosoma brucei, +L84W in aqp1-3 triple KO, 3 repeats, read-out: Alamar blue EC50, MEAN) of 16.1 nM. It also gave an EC50 ([7]; Trypanosoma brucei, +L84W in aqp1-3 triple KO, read-out: Alamar blue EC50, single repeats) of 14.4 nM, an EC50 ([7]; Trypanosoma brucei, +L84W/L118W in aqp1-3 triple KO, read-out: Alamar blue EC50, single repeats) of 53.4 nM and an EC50 ([7]; Trypanosoma brucei, +L118M in aqp1-3 triple KO, 3 repeats, read-out: Alamar blue EC50, MEAN) of 28 nM. For the same compound, the EC50 ([7]; Trypanosoma brucei, +L118M in aqp1-3 triple KO, read-out: Alamar blue EC50, single repeats) was 26.8 nM, the EC50 ([7]; Trypanosoma brucei, +L118W in aqp1-3 triple KO, 3 repeats, read-out: Alamar blue EC50, MEAN) was 26.6 nM and the EC50 ([7]; Trypanosoma brucei, +L118W in aqp1-3 triple KO, read-out: Alamar blue EC50, single repeats) was 26.9 nM. The EC50 ([7]; Trypanosoma brucei, +L218M in aqp1-3 triple KO, 3 repeats, read-out: Alamar blue EC50, MEAN) was 0.63 nM, the EC50 ([7]; Trypanosoma brucei, +L218W in aqp1-3 triple KO, 3 repeats, read-out: Alamar blue EC50, MEAN) was 4.39 nM and the EC50 ([7]; Trypanosoma brucei, +L218W in aqp1-3 triple KO, read-out: Alamar blue EC50, single repeats) was 4 nM. The “Transport rate AVG” value (T. b. brucei 2T1) was 21.86, the Pentamidine transport rate (TbAQP2^L258Y) was 0.0004 pmol/10E7 cells/s and the Pentamidine transport rate (TbAQP2^I110W) was 0.000216 pmol/10E7 cells/s. The “Pentamidine transport rate AVG” value (TbAQP2^L84W/L118W) was 0.0002985 pmol/10E7 cells/s, the EC50 [8] was 27.5 nM and the glycerol uptake ([8]; log[inhibitor] -3.60) was 6.78e-20. The glycerol uptake ([8]; log[inhibitor] -6.48) was 0.000111, the glycerol uptake ([8]; log[inhibitor] -7.00) was 0.000765 and the glycerol uptake ([8]; log[inhibitor] -7.52) was 0.00147. The glycerol uptake ([8]; log[inhibitor] -8.00) was 0.002105, the glycerol uptake ([8]; log[inhibitor] -8.48) was 0.002143 and the glycerol uptake ([8]; log[inhibitor] -9.00) was 0.002263. The glycerol uptake ([8]; log[inhibitor] -9.48) was 0.002177.
